The test system of the assay is Mpro-WT and Mpro-Δ23G 1:1 mixture. Conditions: hamster, in vivo.

As to `CC(C)(C)[C@H](NC(=O)C(F)(F)F)C(=O)N1C[C@H]2[C@@H]([C@H]1C(=O)N[C@H](C#N)C[C@@H]1CCNC1=O)C2(C)C` [nirmatrelvir], the Mpro-WT dominance was greater than 97%.

For the origin of these results see paper PMC12663368 (Nature Communications, 2025).
